Test results reported in patent publication US20240009123A1, “MULTI-SUPPLEMENT DELIVERY SYSTEM” (priority 2022, published 2024).

What was measured:
[1] = Surface charge (zeta potential) at pH 5; assay type: physicochemical
Protocol: A facile, green, and powerful strategy was explored to engineer a robust O/W emulsion for co-delivery of water-soluble vitamins (VC, VB6, VB12) and oil-soluble vitamins (VA, VE). The preparation involved the complexation of chitosan and water-soluble vitamins and subsequent formation of chitosan-stabilized O/W emulsions. The approach is illustrated in FIG. 1A. First, the chitosan-vitamin complexes were prepared by mixing solutions of chitosan, anthocyanins, and water-soluble vitamins in deionized water at pH 5. […] The resulting chitosan-vitamin complexes were mixed with canola oil containing oil-soluble vitamins. After homogenization by ultrasonication, the chitosan-stabilized emulsions can form as optically opaque homogenous suspensions. In the ultrasonication process, the chitosan-vitamin complexes tended to coat on the surface of oil droplets, providing a physical layer for stabilization of oil-soluble vitamins. […] The value of the zeta potential (mV) indicates the degree of electrostatic repulsion and is the indicator/predictor of the stability of the dispersed particles. The absolute value difference of positive and negative electrostatic charges, measured in mV, between vitamins and chitosan is not the only factor that keeps the vitamins on the interface.

[2] = Release of vitamins during tea bag steeping process (UV spectrophotometry); assay type: physicochemical; settings: for release rate: 4° C., pH 5; for release rate (total amount released): initial 2-minute brewing period, water of pH 5, 4° C., tea bag, spray-dried powder of Example 1
Protocol: To evaluate the release of encapsulated vitamins from the spray-dried powder into water, 30 mg spray-dried powders was placed in the tea bag, which was then immersed in a beaker containing 30 mL of deionized water (pH 5). The beaker was placed in a shaker and shaken slowly in a water bath at 4° C. or 100° C. At appropriate brewing time intervals, an aliquot of solution (0.5 mL) was removed with a pipette for measuring the released vitamins. To determine the amount of water-soluble vitamins, the pH of solution was adjusted to pH 1, followed by filtration (filter pore size 50 μm). […] The release rate was determined by the following equation: release rate (%)=(released vitamins/initially added vitamins)×100.
At appropriate steeping time intervals, an aliquot of solution (0.5 mL) was removed with a pipette for measuring the released vitamins. To determine the amount of water-soluble vitamins, the pH of solution was adjusted to pH 1, followed by filtration (filter pore size 50 μm). The filtrate was then collected and quantified using a UV-spectrophotometer for absorbance. A blank was prepared using deionized water at pH of 1 (adjusted by HCl).
The absorbance of Vitamin B6 was measured at a wavelength of 291 nm. The absorbance of Vitamin B12 was measured at a wavelength of 361 nm.
At appropriate steeping time intervals, an aliquot of solution (0.5 mL) was removed with a pipette for measuring the released vitamins. To determine the amount of oil-soluble vitamins, the pH of the solution was adjusted to a pH of 1, followed by filtration (filter pore size 50 μm). Then, 3 mL organic solvent (chloroform+methanol, 1:1, v/v) was added into the solution to extract the oil-soluble vitamins. After centrifugation at 1000 g for 5 min, the layer of chloroform was removed and quantified using the UV-spectrophotometer for absorbance. A blank was prepared using chloroform.
Using a UV-spectrophotometer, the absorbance of Vitamin A was measured at a wavelength of 326 nm. The absorbance of Vitamin E was measured at a wavelength of 295 nm.

charge [1] | release rate ([2]; at 5 min) [%] | release rate (total amount released) [2] [%] | release rate ([2]; at 10 min) [%] | Compound
negatively charged | 84.0 | – | – | CCCCCCCCCCCCCCCC(=O)OC/C=C(C)/C=C/C=C(C)/C=C/C1=C(C)CCCC1(C)C [VA, retinol palmitate]
negatively charged | – | 96.5 | – | O=C1O[C@H]([C@@H](O)CO)C(O)=C1O [VC, Vitamin C]
negatively charged | – | 98.8 | – | Vitamin B6 [VB6]
slightly positively charged | – | 100 | – | Vitamin B12 [VB12]
negatively charged | – | – | – | anthocyanin [anthocyanins]
– | – | – | 80.4 | tocopherols, mixed, FG [VE]
